# Like-named read-outs stand apart in the source and are kept apart here. Peptide text beside a SMILES is read from it.
# Key:
# [1] = biological target: T1, PSD-95 PDZ1 (Homo sapiens, UniProt P78352); assay: SPR steady-state binding to immobilized PSD-95 PDZ1
# T1 construct: PSD-95 PDZ1 (aa 61–151); made in house; host or cells: E. coli One Shot BL21 Star (DE3)
# From the text: To confirm the affinities measured by FP using an orthogonal method and to get information about the kinetics of the GPCR–PDZ interactions, we used SPR. This label-free, surface sensitive technique measures the binding of a ligand to an immobilized protein as a function of time based on refractive index changes.
# For each of the PSD-95 PDZ domains, we determined the K d and the stability of the complexes for selected GPCR C-tail peptides. The residence time τ ( = 1/k d) was used as a convenient measure of the stability of the complexes. […] The K d determined from the steady-state responses of a range of C-tail peptide concentrations (Figure 2B and Table S4) correlated well with the K i values obtained by FP (Figure S1).
# A Biacore X100 (GE Healthcare) SPR instrument equilibrated to 25.0°C and equipped with a Sensor Chip CM5 (for PDZ1 and PDZ2) or CM4 (for PDZ3) (GE Healthcare) was used for the SPR measurements. The running buffer was HBS-EP+ (10 mM HEPES pH 7.4, 150 mM NaCl, 3 mM EDTA, 0.05% Surfactant P-20 (GE Healthcare)).
# PDZ domains were immobilized by amine coupling at a flow rate of 5 µl/min on a surface activated by a 7 min injection of a 1∶1 mixture of 0.4 M 1-ethyl-3-(3-dimethylaminopropyl) carbodiimide (EDC) and 0.1 M N-hydroxysuccinimide (NHS). The remaining active groups were deactivated by a 7 min injection of 1 M ethanolamine HCl pH 8.5. 750 RU PDZ1, 780 RU PDZ2, and 410 RU PDZ3 were immobilized.
# GPCR C-tail peptide samples were injected in increasing concentrations for 1 min with 1 min dissociation time at 30 µl/min. Reproducibility was tested by injecting the 20 µM sample again after the highest concentration sample. The binding curves were corrected by subtraction of buffer blanks and the response from a reference surface that was activated with EDC and NHS and deactivated with ethanolamine like the surface with immobilized PDZ domain. For peptides with a cysteine, 1 mM dithiothreitol (DTT) was added to the samples. Steady-state response curves were plotted from the responses 10 s before injection end. The K d was determined by fitting steady-state response curves to a 1∶1 binding model with a linear component to corrrect for low affinity binding, probably resulting from the immobilization: Y = Ymax × X/(X+K d)+B × X.
# [2] = biological target: T2, PSD-95 PDZ3 (Homo sapiens, UniProt P78352); assay: FP competition assay, PSD-95 PDZ3 (probe Cy5-CRIPT); format: binding; conditions: read-out: K i PDZ3
# T2 construct: made in house; host or cells: E. coli One Shot BL21 Star (DE3)
# Method: We used a competition set-up, where a constant concentration of isolated PSD-95 PDZ domain and a labeled reference ligand was titrated with unlabeled peptides from the GPCR C-tail library, typically within a 1–512 µM concentration range, and the resulting curves were fitted to obtain the IC50, which was used to calculate the K i (Figure 1). Three Cy5-labeled peptides with well-documented interactions with PSD-95 were used as reference ligands for the competition assay: Cy5-KIF1Bα was used for PDZ1 [20], Cy5-GluN2B (formerly known as NR2B) was used for PDZ2 and PDZ1-2 [21], and Cy5-CRIPT was used for PDZ3 [22] (Table S1). Competition with unlabeled versions of the reference ligands was used to validate the FP assay by comparison with the literature (Table S2).
# FP measurements were performed in black, flat bottom 384-well NBS microplates (Corning) on a Synergy H4 microplatereader (BioTek Instruments) equipped with a 620/40 nm excitation filter, a 680/30 nm emission filter, and a 660 nm dichroic mirror. Polarization values were corrected with blank samples and samples with fluorescent probe alone. At least 10 data points were measured for each curve, and each data point was measured in triplicate. 25 nM Cy5-labeled probe was used for each assay: Cy5-KIF1Bα for PDZ1, Cy5-GluN2B for PDZ2 and PDZ1-2, and Cy5-CRIPT for PDZ3. All FP measurements were performed in a buffer containing 10 mM HEPES pH 7.4, 150 mM NaCl, and 1% BSA and incubated at least 15 min at room temperature before reading. The signal was stable for more than an hour, showing that the reaction was at equilibrium.
# Saturation binding curves were used to determine the functionality of the PDZ domains by comparison with literature values and to calculate K i values from competition curves. Saturation binding curves were performed by mixing probe with a twofold dilution series of PDZ protein in a total volume of 30 µl. The K d was determined by fitting to a 1∶1 binding model: Y = Ymax × X/(X+K d).
# For the competition binding curves, probe was mixed with a constant concentration of PDZ protein corresponding to the K d and a twofold dilution series of unlabeled peptide in a total volume of 30 µl. The baseline was determined using a sample containing only probe. The IC50 was determined by fitting to a 1∶1 binding model: Y = Ymax − Ymax × X/(X+IC50). The K i was calculated from the IC50 and from the K d for the interaction between the PDZ protein and the probe as described previously.
# [3] = biological target: T1, PSD-95 PDZ1; assay: FP competition assay, PSD-95 PDZ1 (probe Cy5-KIF1Bα); format: binding
# Method: (§1) FP measurements were performed in black, flat bottom 384-well NBS microplates (Corning) on a Synergy H4 microplatereader (BioTek Instruments) equipped with a 620/40 nm excitation filter, a 680/30 nm emission filter, and a 660 nm dichroic mirror. Polarization values were corrected with blank samples and samples with fluorescent probe alone. At least 10 data points were measured for each curve, and each data point was measured in triplicate. […] All FP measurements were performed in a buffer containing 10 mM HEPES pH 7.4, 150 mM NaCl, and 1% BSA and incubated at least 15 min at room temperature before reading. The signal was stable for more than an hour, showing that the reaction was at equilibrium.
# (§2) For the competition binding curves, probe was mixed with a constant concentration of PDZ protein corresponding to the K d and a twofold dilution series of unlabeled peptide in a total volume of 30 µl. The baseline was determined using a sample containing only probe. The IC50 was determined by fitting to a 1∶1 binding model: Y = Ymax − Ymax × X/(X+IC50). The K i was calculated from the IC50 and from the K d for the interaction between the PDZ protein and the probe as described previously [38].
# [4] = biological target: T3, PSD-95 PDZ2 (Homo sapiens, UniProt P78352); assay: FP competition assay, PSD-95 PDZ2 (probe Cy5-GluN2B); format: binding; conditions: read-out: K i PDZ2
# T3 construct: PDZ2 (aa 155–249); made in house; host or cells: E. coli One Shot BL21 Star (DE3)
# Method: as §1, §2
# [5] = 25 nM Cy5-KIF1Bα, 10 mM HEPES pH 7.4, 150 mM NaCl, 1% BSA, room temperature, mean Ki ± SEM from two or more independent experiments, read-out: K i PDZ1
# [6] = 25 nM Cy5-KIF1Bα, 10 mM HEPES pH 7.4, 150 mM NaCl, 1% BSA, room temperature, at least 15 min, Ki ± fitting error, read-out: K i PDZ1
# [7] = receptors binding to PDZ1 but not to PDZ2, read-out: K i PDZ1
Compound,Kd [1] [µM],Ki [2] [µM],"Ki [3, 5] [µM]",Ki [4] [µM],"Ki [3, 6] [µM]","Ki [3, 7] [µM]"
CC[C@H](C)[C@H](NC(=O)[C@H](CCCNC(=N)N)NC(=O)[C@H](CCC(=O)O)NC(=O)[C@H](CO)NC(=O)[C@@H](NC(=O)[C@@H](NC(=O)[C@H](CO)NC(=O)[C@H](CCCNC(=N)N)NC(=O)[C@H](CC(=O)O)NC(=O)[C@H](CC(=O)O)NC(=O)[C@@H](N)Cc1ccc(O)cc1)C(C)C)C(C)C)C(=O)N[C@@H](CO)C(=O)N[C@@H](CO)C(=O)N[C@H](C(=O)O)C(C)C [5-HTR2C] (H-YDDRSVVSERISSV-OH),160 ± 12,370 ± 40,100 ± 0.1,26 ± 0.4,–,–
CC[C@H](C)[C@H](NC(=O)[C@H](CC(=O)O)NC(=O)[C@H](CCC(N)=O)NC(=O)[C@H](CCCNC(=N)N)NC(=O)[C@H](CC(=O)O)NC(=O)[C@H](CC(=O)O)NC(=O)[C@@H](N)Cc1ccc(O)cc1)C(=O)N[C@H](C(=O)N[C@@H](CC(=O)O)C(=O)N[C@@H](CC(C)C)C(=O)N[C@@H](CCC(N)=O)C(=O)N[C@H](C(=O)N[C@@H](CCC(=O)O)C(=O)N[C@H](C(=O)O)C(C)C)[C@@H](C)O)[C@@H](C)CC [BAI1] (H-YDDRQDIIDLQTEV-OH),120 ± 3.8,790 ± 93,63 ± 6.3,29 ± 1.9,–,–
CC[C@H](C)[C@H](NC(=O)[C@H](CCCNC(=N)N)NC(=O)[C@H](CO)NC(=O)[C@H](C)NC(=O)[C@H](CS)NC(=O)[C@@H](NC(=O)CNC(=O)[C@H](CCCNC(=N)N)NC(=O)[C@H](CC(=O)O)NC(=O)[C@H](CC(=O)O)NC(=O)[C@@H](N)Cc1ccc(O)cc1)[C@@H](C)O)C(=O)N[C@@H](CO)C(=O)N[C@H](C(=O)N[C@@H](CC(C)C)C(=O)O)[C@@H](C)O [SSTR1 Mouse] (H-YDDRGTCASRISTL-OH),270 ± 9.1,> 1000,–,90 ± 14,270 ± 35,–
CC[C@H](C)[C@H](NC(=O)[C@H](CCCNC(=N)N)NC(=O)[C@H](CCSC)NC(=O)[C@@H](NC(=O)[C@H](CO)NC(=O)[C@H](CO)NC(=O)[C@H](CCCCN)NC(=O)[C@H](CCCNC(=N)N)NC(=O)[C@H](CC(=O)O)NC(=O)[C@@H](N)CC(=O)O)[C@@H](C)O)C(=O)N[C@@H](CO)C(=O)N[C@@H](Cc1ccc(O)cc1)C(=O)N[C@@H](CC(C)C)C(=O)O [SSTR3] (H-DDRKSSTMRISYL-OH),–,280 ± 5,–,> 1000,610 ± 125,> 600
CC[C@H](C)[C@H](NC(=O)[C@H](CCCNC(=N)N)NC(=O)[C@H](CCCNC(=N)N)NC(=O)[C@H](CC(=O)O)NC(=O)[C@H](CC(=O)O)NC(=O)[C@@H](N)Cc1ccc(O)cc1)C(=O)N1CCC[C@H]1C(=O)N[C@@H](CC(C)C)C(=O)N[C@H](C(=O)N[C@@H](CCCNC(=N)N)C(=O)N[C@H](C(=O)N[C@H](C(=O)N[C@H](C(=O)N[C@@H](Cc1ccccc1)C(=O)O)[C@@H](C)O)[C@@H](C)O)[C@@H](C)O)[C@@H](C)O [SSTR4 Human] (H-YDDRRIPLTRTTTF-OH),–,600 ± 67,–,450 ± 58,750 ± 80,–
CC(C)[C@H](NC(=O)[C@H](CCC(N)=O)NC(=O)[C@H](CCCNC(=N)N)NC(=O)[C@H](CC(=O)O)NC(=O)[C@H](CC(=O)O)NC(=O)[C@@H](N)Cc1ccc(O)cc1)C(=O)N1CCC[C@H]1C(=O)N[C@@H](Cc1ccccc1)C(=O)N[C@H](C(=O)N[C@@H](CCCCN)C(=O)N[C@H](C(=O)N[C@H](C(=O)N[C@H](C(=O)N[C@@H](Cc1ccccc1)C(=O)O)[C@@H](C)O)[C@@H](C)O)[C@@H](C)O)[C@@H](C)O [SSTR4 Mouse] (H-YDDRQVPFTKTTTF-OH),–,> 1000,–,420 ± 52,> 1000,–
CC(C)[C@H](NC(=O)[C@H](CC(N)=O)NC(=O)[C@@H](NC(=O)[C@H](C)NC(=O)[C@H](CCC(=O)O)NC(=O)[C@@H](NC(=O)[C@H](Cc1ccccc1)NC(=O)[C@H](CO)NC(=O)[C@H](CC(=O)O)NC(=O)[C@H](CC(N)=O)NC(=O)[C@H](CCCNC(=N)N)NC(=O)[C@H](CC(=O)O)NC(=O)[C@H](CC(=O)O)NC(=O)[C@@H](N)Cc1ccc(O)cc1)[C@@H](C)O)[C@@H](C)O)C(=O)O [Y2] (H-YDDRNDSFTEATNV-OH),–,> 1000,–,230 ± 14,270 ± 22,–
CC(C)C[C@H](NC(=O)[C@@H](NC(=O)[C@H](CO)NC(=O)[C@H](CO)NC(=O)[C@H](CO)NC(=O)[C@H](CCC(N)=O)NC(=O)[C@H](CCCCN)NC(=O)[C@H](Cc1ccc(O)cc1)NC(=O)[C@H](CC(=O)O)NC(=O)[C@H](CCCNC(=N)N)NC(=O)[C@H](CCCNC(=N)N)NC(=O)[C@H](CC(=O)O)NC(=O)[C@@H](N)CC(=O)O)[C@@H](C)O)C(=O)O [mGlu1(a)] (H-DDRRDYKQSSSTL-OH),–,> 1000,–,> 1000,–,> 600
CC[C@H](C)[C@H](NC(=O)[C@@H](NC(=O)[C@H](CC(C)C)NC(=O)[C@H](CC(N)=O)NC(=O)[C@H](CC(N)=O)NC(=O)[C@H](Cc1ccc(O)cc1)NC(=O)[C@H](CO)NC(=O)[C@@H](NC(=O)[C@H](Cc1ccc(O)cc1)NC(=O)[C@H](CCCCN)NC(=O)[C@H](CCCNC(=N)N)NC(=O)[C@H](CC(=O)O)NC(=O)[C@@H](N)CC(=O)O)C(C)C)C(C)C)C(=O)O [mGlu7(a)] (H-DDRKYVSYNNLVI-OH),–,> 1000,–,> 1000,610 ± 51,> 600
CC(C)[C@H](NC(=O)[C@H](CCCCN)NC(=O)[C@H](CO)NC(=O)[C@H](CCC(=O)O)NC(=O)[C@H](CO)NC(=O)[C@H](C)NC(=O)[C@H](Cc1ccccc1)NC(=O)CNC(=O)[C@@H]1CCCN1C(=O)[C@H](CCCNC(=N)N)NC(=O)[C@H](CCCNC(=N)N)NC(=O)[C@H](CC(=O)O)NC(=O)[C@H](CC(=O)O)NC(=O)[C@@H](N)Cc1ccc(O)cc1)C(=O)O [β1AR] (H-YDDRRPGFASESKV-OH),–,360 ± 82,–,120 ± 20,430 ± 47,–
